Experiment: xn = mol fraction of the nth substance listed
Conditions: 101.33 kPa, Liquid, Vibrating tube method

NCCO [2-aminoethan-1-ol] + CO
mass density [kg/m3]
Conditions | 333.15 K | 338.15 K | 343.15 K | 348.15 K | 353.15 K
x1 = 0.05 | – | 769.67 | 764.72 | 759.71 | 754.62
x1 = 0.1 | – | 789.76 | 784.91 | 780 | 775.02
x1 = 0.15 | – | 808.15 | 803.39 | 798.56 | 793.68
x1 = 0.2002 | – | 825.28 | 820.58 | 815.83 | 811.02
x1 = 0.2501 | – | 840.8 | 836.17 | 831.49 | 826.76
x1 = 0.2974 | – | 854.6 | 850 | 845.36 | 840.69
x1 = 0.3502 | – | 868.88 | 864.35 | 859.77 | 855.14
x1 = 0.4001 | – | 881.08 | 876.6 | 872.07 | 867.5
x1 = 0.4427 | – | 890.99 | 886.55 | 882.06 | 877.53
x1 = 0.4502 | – | 892.86 | 888.42 | 883.94 | 879.42
x1 = 0.5002 | – | 903.44 | 899.04 | 894.6 | 890.11
x1 = 0.5501 | – | 913.38 | 909.01 | 904.62 | 900.18
x1 = 0.6001 | – | 922.8 | 918.47 | 914.1 | 909.7
x1 = 0.6501 | – | 931.59 | 927.29 | 922.96 | 918.6
x1 = 0.7005 | – | 940.08 | 935.81 | 931.52 | 927.19
x1 = 0.7479 | – | 947.22 | 942.98 | 938.72 | 934.42
x1 = 0.8002 | – | 955.24 | 951.03 | 946.8 | 942.54
x1 = 0.8502 | – | 961.84 | 957.66 | 953.46 | 949.23
x1 = 0.8967 | – | 968.16 | 964.01 | 959.83 | 955.62
x1 = 0.9501 | 978.67 | 974.57 | 970.45 | 966.3 | 962.12
